Test results from paper PMC12565843, “Phenolic Compounds from Hypericum cerastoides (Spach) N. Robson: Dereplication via UHPLC-HRMS/MS, Isolation, Identification, and Preliminary Biological Evaluation Focusing on Radical-Scavenging, Anti-α-Glucosidase, and Pro-Lipase Activities” (Metabolites, 2025).
Where “and” joins values, the source holds several entries; their conditions need not be identical. Equal values may be shown once.

Assays:
[1] = target: T1, lipase from porcine pancreas, Type II (Sus scrofa, UniProt P00591); test: Assay for modulation of lipase activity (LC-MS, p-nitrophenyl laurate substrate); assay type: biochemical; details: for Effect on lipase activity (in words): tested at 200-12.5 µM; for Fold increase of lipase activity compared to the control: 200 µM
T1 construct: lipase from porcine pancreas, Type II; purchased Sigma-Aldrich L3126; host or cells: porcine pancreas (tissue-derived)
T1 sequence (P00591 1-450): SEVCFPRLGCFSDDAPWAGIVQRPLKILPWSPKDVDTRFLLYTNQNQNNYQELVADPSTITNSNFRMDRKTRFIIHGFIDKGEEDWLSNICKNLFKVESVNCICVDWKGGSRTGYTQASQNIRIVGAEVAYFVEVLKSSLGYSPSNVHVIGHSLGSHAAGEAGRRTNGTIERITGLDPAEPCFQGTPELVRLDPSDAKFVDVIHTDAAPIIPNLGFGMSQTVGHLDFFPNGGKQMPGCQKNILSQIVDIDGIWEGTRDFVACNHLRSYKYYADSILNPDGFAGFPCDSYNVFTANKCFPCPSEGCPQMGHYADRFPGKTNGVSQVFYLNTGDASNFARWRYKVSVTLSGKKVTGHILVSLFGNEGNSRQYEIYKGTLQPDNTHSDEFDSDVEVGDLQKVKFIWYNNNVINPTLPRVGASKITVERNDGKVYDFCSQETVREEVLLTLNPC
Protocol: This assay was adapted from previous reports for the determination of anti-lipase and pro-lipase activity by LC-MS [14]. Briefly, lipase from porcine pancreas, Type II (Sigma-Aldrich, St. Louis, MA, USA, product L3126), was dissolved in ultra-pure water at a 5 mg/mL concentration. The supernatant was then used after centrifugation at 15,000 rpm for 10 min. The assay buffer was 100 mM Tris buffer (pH 8.2), and p-nitrophenyl laurate was used as the substrate. The substrate stock was 2 mg p-nitrophenyl laurate dissolved in 1 mL isopropanol and 4 mL 5 mM sodium acetate (pH 5.0) containing 1% Triton X-100 (Fisher Scientific, Bridgewater, NJ, USA). The mixture was heated to facilitate dissolution, thoroughly mixed, and then cooled to room temperature. The assay mixture (1 mL) contained 20 µL of a sample in DMSO (or DMSO as a control), 860 µL of Tris buffer (pH 8.2), and 30 µL of enzyme solution. The mixture was combined, shaken, and incubated at 37 °C for 15 min. Then, 90 µL of substrate solution was added and shaken again. The reaction was processed at 37 °C for 2 h and stopped by adding 800 µL CH3CN to 200 µL of the assay mixture. The supernatant was then used for LC-MS analysis after centrifugation at 15,000 rpm for 10 min. The amount of p-nitrophenol released from p-nitrophenyl laurate was quantified using LC-MS. Lipase inhibitory activity (%) was calculated according to the formula: % Lipase inhibitory activity=Aк−Asample/Aк×100, where Aк is the area of the p-nitrophenol peak in the control, and Asample is the area of the p-nitrophenol peak in the sample.
Pro-lipase activity (%) was calculated according to the formula: % Prolipase activity=Asample−Ak/Aк×100, where Aк is the area of the p-nitrophenol peak in the control, and Asample is the area of the p-nitrophenol peak in the sample.

[2] = DPPH radical-scavenging activity assay; details: compounds and controls at 100 µM in EtOH, 30 min, 517 nm; mean ± SD
Protocol: The scavenging activity of phenolic compounds against DPPH radicals was assessed using Kokanova-Nedialkova and Nedialkov methods, with some modifications. Briefly, 300 µL of each compound in EtOH (100 µM) was mixed with 300 µL of DPPH ethanol solution (100 µM). The reaction mixture was thoroughly vortexed and left in the dark at room temperature for 30 min. The absorbance of the mixture was measured at 517 nm. The following equation calculates the ability to scavenge DPPH radicals: %DPPH radical scavenging activity=Abscontrol−Abssample/Abscontrol×100, where Abscontrol is the absorbance of the DPPH radical in EtOH, and Abssample is the absorbance of the DPPH radical solution mixed with a sample.
Positive controls were vitamin C (100 µM) and Trolox (100 µM).

[3] = ABTS radical-scavenging activity assay; details: compounds and controls at 100 µM in EtOH, 7 min, 734 nm, mean ± SD
Protocol: For ABTS assay, the procedure followed the method of Kokanova-Nedialkova and Nedialkov with some modifications. The stock solutions included 7 mM ABTS and 2.4 mM potassium persulfate. The working solution was then prepared by mixing the two stock solutions in equal quantities and allowing them to react for 12–14 h at room temperature in the dark. The solution was then diluted by mixing 1 mL of the ABTS solution with 30 mL of ethanol. A fresh ABTS solution was prepared for each assay. Furthermore, 300 µL of each compound in EtOH (100 µM) was allowed to react with 1 mL of the ABTS solution, and the absorbance was taken at 734 nm after 7 min using a spectrophotometer. The ABTS scavenging capacity of the compound was calculated as: %ABTS radical scavenging activity=Abscontrol−Abssample/Abscontrol×100 where Abscontrol is the absorbance of the ABTS radical in ethanol, and Abssample is the absorbance of an ABTS radical solution mixed with a sample.
Vitamin C (100 µM) and Trolox (100 µM) were used as positive controls.

α-glucosidase = test: Anti-α-glucosidase activity assay (LC-MS, p-nitrophenyl-α-D-glucopyranoside substrate); assay type: biochemical; details: five concentrations 1000-62.5 µM, NA = the compound is not active; for IC50: read-out: α-Glucosidase Inhibitory Activity (IC50 ± SD)
Protocol: The α-Glucosidase inhibitory activity was determined by LC-MS using p-nitrophenyl-α-D-glucopyranoside as the substrate, as described by Kokanova-Nedialkova et al.. The assay mixture (160 µL) was prepared accordingly to Kang et al. with some modifications. An aliquot of 20 µL of a sample in phosphate buffer (pH 6.8) containing 10% DMSO (or phosphate buffer containing 10% DMSO as a control), 100 µL phosphate buffer (pH 6.8), and 20 µL enzyme solution (0.2 U/mL α-glucosidase in phosphate buffer) were mixed and incubated at 37 °C for 15 min. Then, 20 µL of substrate solution (2.5 mM p-nitrophenyl-α-D-glucopyranoside, prepared in the same buffer) was added. The reaction was processed at 37 °C for 15 min and stopped by adding 840 µL acetonitrile (AcCN). The supernatant was then used for LC-MS analysis after centrifugation at 12,000 rpm for 10 min. The amount of p-nitrophenol released from p-nitrophenyl-α-D-glucopyranoside was quantified using liquid chromatography-[…] (LC-MS). The inhibitory rates (%) were calculated according to the formula: % α−Glucosidase inhibitory activity=Aк−Asample/Aк×100, where Aк is the area of the p-nitrophenol peak in the control, and Asample is the area of the p-nitrophenol peak in the sample.

O=C(C=Cc1ccc(O)cc1)OC1CC(O)(C(=O)O)CC(O)C1O (centres unmarked) [HC1, coumaroylquinic acid]
Effect on lipase activity (in words) [1]: do not inhibit lipase activity | DPPH % (radical-scavenging activity) [2]: 18.95% and 18.95 ± 0.36% | ABTS % (radical-scavenging activity) [3]: 22.12% and 22.12 ± 0.63% | IC50 (α-glucosidase): 44 ± 5 µM

O=c1c(OC2OC(CO)C(O)C(O)C2O)c(-c2cc(O)c(O)c(O)c2)oc2cc(O)cc(O)c12 (centres unmarked) [HC2, myricetin-3-O-glucoside]
Fold increase of lipase activity compared to the control [1]: fivefold | Effect on lipase activity (in words) [1]: do not inhibit lipase activity | DPPH % (radical-scavenging activity) [2]: 84.32% and 84.32 ± 0.23% | ABTS % (radical-scavenging activity) [3]: 97.23% and 97.23 ± 0.45% | α-Glucosidase Inhibitory Activity (IC50 ± SD) (α-glucosidase): did not exhibit measurable inhibitory activity

O=c1c(OC2OC(CO)C(O)C(O)C2O)c(-c2cc(O)c(O)c(O)c2)oc2cc(O)cc(O)c12 (centres unmarked) [HC3, myricetin-3-O-galactoside]
Fold increase of lipase activity compared to the control [1]: fivefold | Effect on lipase activity (in words) [1]: do not inhibit lipase activity | DPPH % (radical-scavenging activity) [2]: 82.70% and 82.70 ± 0.34% | ABTS % (radical-scavenging activity) [3]: 96.04% and 96.04 ± 0.37% | IC50 (α-glucosidase): 206 ± 13 µM

CC(=O)OC1C(Oc2cc(O)cc(O)c2C(=O)c2ccccc2)OC(CO)C(O)C1O [HC4, 4,6-Dihydroxy Benzophenone-2-O-β-D-2″-Acetylglucopyranoside]
Effect on lipase activity (in words) [1]: did not show any significant effect on lipase activity | DPPH % (radical-scavenging activity) [2]: 14.63% and 14.63 ± 0.50% | ABTS % (radical-scavenging activity) [3]: 70.20% and 70.20 ± 0.23% | α-Glucosidase Inhibitory Activity (IC50 ± SD) (α-glucosidase): did not exhibit measurable inhibitory activity

COC(=O)C1(O)CC(O)C(O)C(OC(=O)C=Cc2ccc(O)c(O)c2)C1 (centres unmarked) [HC5, methyl ester of chlorogenic acid]
Effect on lipase activity (in words) [1]: do not inhibit lipase activity | DPPH % (radical-scavenging activity) [2]: 84.57% and 84.57 ± 0.27% | ABTS % (radical-scavenging activity) [3]: 71.27% and 71.27 ± 0.08% | α-Glucosidase Inhibitory Activity (IC50 ± SD) (α-glucosidase): did not exhibit measurable inhibitory activity

CC(C)C1CC(OC2OC(COC(=O)C=Cc3ccc(O)cc3)C(O)C(O)C2O)CC(=O)O1 [HC6, 4-O-{6-[(2E)-p-Hydroxycinnamoyl]-β-D-Glucopyranosyl}-6-isopropyl-tetrahydro-2H-pyran-2-one]
Effect on lipase activity (in words) [1]: do not inhibit lipase activity | DPPH % (radical-scavenging activity) [2]: 15.93% and 15.93 ± 0.33% | ABTS % (radical-scavenging activity) [3]: 25.50% and 25.50 ± 0.12% | IC50 (α-glucosidase): 371 ± 9 µM

COC(=O)CC(CC(O)C(C)C)O[C@@H]1O[C@H](COC(=O)/C=C/c2ccc(O)cc2)[C@@H](O)[C@H](O)[C@H]1O (stereo partly drawn) [HC7, Methyl 3-O-{6-[(2E)-p-hydroxycinnamoyl]-β-glucopyranosyl}-6-methyl-5-hydroxyheptanoate]
Effect on lipase activity (in words) [1]: did not show any significant effect on lipase activity | DPPH % (radical-scavenging activity) [2]: 11.48% and 11.48 ± 0.21% | ABTS % (radical-scavenging activity) [3]: 26.88% and 26.88 ± 0.33% | α-Glucosidase Inhibitory Activity (IC50 ± SD) (α-glucosidase): did not exhibit measurable inhibitory activity

Cc1c(C)c2c(c(C)c1O)CCC(C)(C(=O)O)O2 (centres unmarked) [Trolox, reference compound]
DPPH % (radical-scavenging activity) [2]: 88.33 ± 0.33% | ABTS % (radical-scavenging activity) [3]: 94.16% and 94.16 ± 0.32%

O=C1O[C@H]([C@@H](O)CO)C(O)=C1O [Vit C, reference compound]
DPPH % (radical-scavenging activity) [2]: 59.44 ± 0.42% | ABTS % (radical-scavenging activity) [3]: 66.21 ± 0.45% | ABTS % (radical-scavenging activity) ([3]; listed as Vitamin C): 66.21%
